Test results published in paper PMC8315922, “In Vitro Identification and In Vivo Confirmation of Inhibitors for Sweet Potato Chlorotic Stunt Virus RNA Silencing Suppressor, a Viral RNase III” (Journal of Virology, 2021).
pIC50, pKd: −log10 of the molar value. Read-outs that look alike come from different tables or passages of the source.

Experiments:
SPFMV [1] = assay: Virus accumulation (RT-qPCR of coat protein RNA) in coinfected sweetpotato plants grown in culture medium: SPFMV; assay type: in vivo, Sweet potato feathery mottle virus; details: for SPFMV accumulation reduced / viral titer SPFMV (log2 fold change relative to controls): plants in culture medium, 50 μM; for SPFMV_FC (fold change of viral accumulation): 50 μM in culture medium, 28 days, relative to DMSO control
Method: (§1) Since tests in culture medium consume smaller amounts of compounds and can be carried out under relatively controlled conditions, sweetpotato plants coinfected with SPCSV and SPFMV were grown in medium supplemented with one of the 30 inhibitor candidates at a concentration of 50 μM. Their effects on plant growth were monitored by imaging the plants once a week. […] In addition, virus accumulation was quantified by measuring the relative abundance of the transcripts encoding viral coat proteins using RT-qPCR ([32]). The effect of individual compounds on virus accumulation was estimated by comparing treated and control plants.
(§2) Sweetpotato plants cultivar 'Huachano' (accession CIP420065) were side-graft inoculated with both SPFMV (East African strain isolate Nam1) and SPCSV-Ug (East African serotype 2) as described previously ([62]). Plantlets were propagated by taking single-node stems grown in a plant culture medium ([33]). Next, plantlets with newly formed roots were transferred to glass tubes (18 by 150 mm) containing 10 ml of medium supplemented with either 50 μM compound (diluted in DMSO; final DMSO concentration, 0.1%) or only 0.1% DMSO as a control. For plant experiments in soil, plantlets were transferred to pots (6 by 6 by 10 cm) filled with a mixture of sand, humus, and washed soil. After 1 week, plants were treated by foliar spraying using either individual compounds at a single concentration (10 μM) (treatment) or water (control/mock) twice a week for 1 month. All plants were grown at 22°C with 60% humidity and a 16-h light/8-h dark photoperiod for 28 days in culture medium and for 41 days in soil. The Finnish National Plant Phenotyping Infrastructure (NaPPI) was used to monitor plant viral disease symptoms as described in our previous study ([33]). Four compounds were tested with the phenotyping platform in two independent batches, each of which included five biological replicates.
(§3) Leaf samples were collected from plants grown in culture medium or soil for 28 or 41 days, respectively, and frozen in liquid nitrogen. Total RNA was extracted using the Spectrum plant total RNA kit (Sigma-Aldrich). First-strand cDNA was synthesized using the Transcriptor first-strand cDNA synthesis kit (Roche, Basel, Switzerland). […] All RT-qPCR experiments were conducted in triplicate on three and five biological replicates from plants grown in culture medium and soil, respectively. The primer list can be found in our previous study ([33]).
(§4) For HTS, the activity of CSR3 was calculated by measuring the change in fluorescence as a function of the reaction time using MARS Data Analysis software (BMG Labtech). To evaluate the CSR3 inhibition efficiency of individual compounds, the PI of each compound was calculated using the slope values for the sample, positive control, and negative control according to the following equation: PI = 100 × [1 − (sample − positive)/(negative − positive)]%. IC50 and DSS values were calculated using concentration-specific PI values according to a previous study ([31]). Relative gene expression was calculated using the classical 2^−ΔΔ^CT method ([63]).

[2] = molecular target: CSR3 (RNase III of SPCSV) (Sweet potato chlorotic stunt virus, UniProt Q8JJW8); assay: Kinetic-based FRET dose-response assay (IC50, DSS); assay type: biochemical; parameters: DSS / DSS Comm 1 / DSS FIMM1 / DSS FIMM 2: scale not given here; details: for DSS Comm 1 / DSS FIMM1 / DSS FIMM 2: drug sensitivity score; for DSS Comm 1: repeat Comm 1; for DSS FIMM1: repeat FIMM 1; for DSS FIMM 2: repeat FIMM 2; for DSS / pIC50: kinetic-based HTS, Fig 5A summary; for IC50: 1.25 nM to 50 μM, unit inferred
Method: A dose-response assay with six concentrations (1.25 nM to 50 μM) was carried out in three independent experiments, which included two tests with the 112 selected FIMM compounds (i.e., compounds prepared by the HTB-FIMM) and one test using the newly ordered commercial compounds (99 of the 112 compounds, i.e., compounds prepared by a second supplier). A dose-response curve was generated for each compound based on PI values as a function of the concentration.
The HTS assay was designed based on FRET using a 22-bp siRNA (forward sequence, […]; reverse sequence, […]) with a 2-nucleotide (nt) 3′ overhang labeled with the fluorescent dye 6-carboxyfluorescein (FAM) and a black hole quencher (BHQ1) on the sense strand (Metabion, Munich, Germany). Screening was initially carried out at one concentration (10 μM) in a 20-μl reaction buffer. […] All reaction mixtures contained 50 nM CSR3 and 375 nM labeled siRNA in 384-well black flat-bottom microplates (Corning, NY, USA) and were prepared using a BioTek MultiFlo FX dispenser with single-channel random access dispenser cassettes (BioTek, Winooski, VT, USA). The plates were read with a PHERAstar FS reader (BMG Labtech, Ortenberg, Germany).
as §4

SPCSV [3] = assay: Virus accumulation (RT-qPCR of coat protein RNA) in coinfected sweetpotato plants grown in culture medium: SPCSV; assay type: in vivo, Sweet potato chlorotic stunt virus; details: for SPCSV accumulation reduced / viral titer SPCSV (log2 fold change relative to controls): plants in culture medium, 50 μM; for SPCSV_FC (fold change of viral accumulation): 50 μM in culture medium, 28 days, relative to DMSO control
Method: as §1, §2, §3, §4

CSR3 [4] = molecular target: T1, CSR3 (Sweet potato chlorotic stunt virus, UniProt Q8JJW8); assay: Binding affinity assay using MST; details: for Comments: MST behaviour of compound (V-shape response, fluorescence quenching, interference, aggregator); for pKd: MST binding affinity to CSR3; for pKd / Binding (Yes/No) / Response Amplitude: Table S4; for Binding (Yes/No): MST binding call; for Response Amplitude: MST response amplitude
T1 sequence (Q8JJW8 1-228): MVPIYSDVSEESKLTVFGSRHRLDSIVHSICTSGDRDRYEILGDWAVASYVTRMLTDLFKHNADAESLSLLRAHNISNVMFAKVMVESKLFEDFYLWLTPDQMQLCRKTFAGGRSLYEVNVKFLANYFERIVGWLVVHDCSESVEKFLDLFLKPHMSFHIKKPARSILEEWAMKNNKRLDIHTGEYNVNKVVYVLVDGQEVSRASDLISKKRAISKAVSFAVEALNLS
Method: (§5) Binding affinity assays were first carried out with the 99 commercial compounds using the MST method.
The labeled-protein solution containing 500 nM proteins and 40 nM dye was prepared in PBS buffer with 2% dimethyl sulfoxide (DMSO) for the assay. The 12 concentrations for each compound were obtained by 2-fold serial dilutions (0.2 μM to 400 μM). […] Two independent experiments were carried out in premium coated capillaries (NanoTemper, Munich, Germany) using a Monolith NT.Automated instrument (NanoTemper) with the power set at high (80%), the light-emitting diode (LED) power (pico red) set at 5%, and the on-time set at 20 s. The dissociation constant (Kd) was determined using the MO.Affinity Analysis program (NanoTemper).

sweetpotato plants = details: 50 μM in culture medium
SPCSV [5] = details: plants in soil, 10 μM foliar spray twice a week for 1 month, vs water-treated
Method: (§6) Compounds were administered by regular foliar spray over 1 month.
as §2
(§7) Leaf samples were collected from plants grown in culture medium or soil for 28 or 41 days, respectively, and frozen in liquid nitrogen. Total RNA was extracted using the Spectrum plant total RNA kit (Sigma-Aldrich). First-strand cDNA was synthesized using the Transcriptor first-strand cDNA synthesis kit (Roche, Basel, Switzerland). Gene expression was measured in a final volume of 10 μl (containing 2 μl 10-fold-diluted cDNA, 5 μl SYBR green I master mix [Roche], and 2.5 μM primers) using the LightCycler 480 instrument II (Roche). All RT-qPCR experiments were conducted in triplicate on three and five biological replicates from plants grown in culture medium and soil, respectively. The primer list can be found in our previous study ([33]).
as §4

SPFMV [6] = details: plants in soil, 10 μM foliar spray twice a week for 1 month, vs water-treated
Method: as §6, §2, §7, §4

[7] = system: human enzymes or bacterial proteins; parameters: method as in earlier work; details: ref PubChem https://pubchem.ncbi.nlm.nih.gov/compound/7114450#section=Biological-Test-Results; cited from earlier work
CSR3 [8] = molecular target: T1, CSR3; assay: Binding affinity assay using SPR; details: SPR dose-response 3 μM to 200 μM, 25°C, numbers match M (cf. Fig 5A)
Method: as §5
CSR3 was purified as described above and stored in PBS buffer. SPR was performed on a BiacoreT100 instrument (GE Healthcare) using a sensor S CM5 chip (GE Healthcare). CSR3 (10 ng/μl) was immobilized using the standard amine-coupling method according to the manufacturer’s instructions with immobilization buffer (10 mM sodium acetate [pH 4]); the final response unit (RU) value was 11,459. Compounds at a single concentration (100 μM) or consisting of 2-fold serial dilutions (3 μM to 200 μM) were flowed over the sensor surface using PBS buffer with 0.01 M HEPES, 0.05% surfactant P20, and 2% DMSO. […] To eliminate bulk interference by DMSO, a solvent correction consisting of DMSO at concentrations ranging from 1.5% to 2.8% was carried out for every 30 samples. Steady-state affinity (KD) values were determined using BiacoreT100 Evaluation software, v.2.04 (GE Healthcare).

[9] = read-out: IC50 Comm 1, repeat Comm 1 (commercial compounds), numbers match nM
[10] = repeat FIMM 2 (FIMM library compounds), numbers match nM, read-out: IC50 FIMM 2
[11] = read-out: IC50 FIMM1, repeat FIMM 1 (FIMM library compounds), numbers match nM (cf. Fig 5A)
[12] = read-out: IC50 FIMM 2, repeat FIMM 2 (FIMM library compounds), numbers match nM
[13] = repeat Comm 1 (commercial compounds), numbers match nM, read-out: IC50 Comm 1
[14] = repeat FIMM 1 (FIMM library compounds), numbers match nM (cf. Fig 5A), read-out: IC50 FIMM1

Compound	SPFMV accumulation reduced (SPFMV [1]) [fold]	DSS Comm 1 [2]	DSS FIMM1 [2]	DSS FIMM 2 [2]	DSS [2]	pIC50 [2]	IC50 [2, 9] [nM]	IC50 [2, 10] [nM]	SPCSV accumulation reduced (SPCSV [3])	Binding (Yes/No) (CSR3 [4])	Response Amplitude (CSR3 [4])	SPFMV_FC (fold change of viral accumulation) (SPFMV [1])	Toxicity (sweetpotato plants)	SPCSV_FC (fold change of viral accumulation) (SPCSV [3])	IC50 [2, 13] [nM]	other results
CN1CCc2cccc3c2[C@H]1Cc1ccc(O)c(O)c1-3 [FIMM000096, reference compound]	~2	12.7	12.7	12.8	12.7	~5.53	2950	2880	~4 fold	Yes	11808	–	–	–	–	Comments (CSR3 [4]): Fluorescence quenching; pKd (CSR3 [4]): 6.16
O=C(O)c1ccc2c(c1)C1C=CCC1C(c1ccccc1)N2 (centres unmarked) [FIMM005536]	~4	12.4	12.5	12.1	12.5	~5.56	2880	–	approximately 8 fold	No	0	0.2931	no	0.1274	–	viral titer SPFMV (log2 fold change relative to controls) (SPFMV [1]): −1.77; IC50 [2, 11]: 2750 nM; IC50 [2, 12]: 2930 nM; viral titer SPCSV (log2 fold change relative to controls) (SPCSV [3]): −2.97; log2 fold change in coat protein expression of SPCSV (SPCSV [5]): −1.67; log2 fold change in coat protein expression of SPFMV (SPFMV [6]): −1.36; activity in inhibitor screens for human enzymes or bacterial proteins [7]: inactive
O=C(O)c1ccc2c(c1)C1C=CCC1C(c1ccc(F)cc1)N2 (centres unmarked) [FIMM051696]	~4	11.1	12.4	10.8	12.4	~5.55	3610	–	~4 fold	No	0.517	0.3032	no	0.2923	–	viral titer SPFMV (log2 fold change relative to controls) (SPFMV [1]): −1.72; IC50 [2, 11]: 2820 nM; IC50 [2, 12]: 4000 nM; pKd (CSR3 [8]; unit inferred, read-out: Steady State Affinity): 5.44; viral titer SPCSV (log2 fold change relative to controls) (SPCSV [3]): −1.77; activity in inhibitor screens for human enzymes or bacterial proteins [7]: inactive
CN1C(=O)C(=CNc2ccc(F)cc2)C(=O)N(C)C1=O [FIMM059523]	–	–	0	2.3	–	–	–	21000	–	–	–	–	–	–	–	–
O=S(=O)(O)c1cccc2cc(O)ccc12 [FIMM072577]	–	20.7	18.3	22.1	–	–	–	295	–	No	0	1.005	no	0.7975	391	IC50 [2, 14]: 699 nM; Steady State Affinity (CSR3 [8]; unit not given): non binder; Comments (CSR3 [4]): Interference
CCn1c(S)nnc1CCNC(=O)c1cccs1 [FIMM099662]	–	6	11.7	10.2	–	–	–	3810	–	Yes	21	0.9387	no	0.5483	11400	IC50 [2, 14]: 3070 nM; pKd (CSR3 [4]; read-out: Kd): 5.75
CC(C)(C)C1CCc2c(sc(NC(=O)C3CC=CCC3C(=O)O)c2C(N)=O)C1 (centres unmarked) [FIMM104970]	–	2.4	0	2.1	–	–	–	–	–	No	2.23	–	–	–	3620	–
